In patent US20040002069A1, “Hepatic gene expression profiling of streptozotocin-induced diabetes” (The Regents of the University of California, priority 2002, published 2004):

Tests used:
[1] = system: hepatic gene expression; assay: Hepatic gene expression profiling of streptozotocin-induced diabetes (Affymetrix Mu11KsubA/Mu11KsubB arrays); type: in vivo, Swiss-Webster mice
Experimental: (§1) Mice and treatment. Female, 8-month old Swiss-Webster mice were purchased from Jackson Laboratories. Diabetes was induced by three weekly intraperitoneal injections of streptozotocin (STZ; 10 mg/100 g body weight) in 50 mM sodium citrate, pH 4.5. […] Only mice with blood glucose levels higher than 3 mg/ml were used. Mice injected with equivalent volumes of sodium citrate at the same times served as controls. Mice were sacrificed one week after the last injection. Mice were fasted for 24 h before sacrifice.
Measurement of Specific mRNA Levels. Total liver RNA was isolated from frozen tissue fragments using TRI Reagent (Molecular Research Center, Inc., Cincinnati, Ohio) as described previously (Cao et al., Proc. Natl. Acad. Sci. U.S. A. 98:10630-10635 (2001)). Specific mRNA levels were measured using the Affymetrix Mu11KsubA and Mu11KsubB high-density oligonucleotide arrays using standard Affymetrix protocols as described (Cao et al., Proc. Natl. Acad. Sci. U.S. A. 98:10630-10635 (2001)). Briefly, cDNA was prepared from total RNA using Superscript Choice System with a primer containing oligo(dT) and the T7 RNA polymerase promoter sequence. Biotinylated cRNA was synthesized from purified cDNA using the Enzo BioArray High Yield RNA Transcript Labeling Kit (Enzo Biochem), and CRNA purified using RNeasy mini columns (Qiagen, Chatsworth, Calif.). An equal amount of cRNA from each animal was separately hybridized to Mu11KsubA and Mu11ksubB high-density oligonucleotide arrays. The arrays were hybridized for 16 h at 45° C. After hybridization, arrays were washed, stained with streptavidin-phycoerythrin, and scanned using a Hewlett-Packard GeneArray Scanner.
Data Analysis and Statistics. Image analysis and data quantification were performed using the Affymetrix Microarray Suite 5.0. Affymetrix Mu11KsubA and Mu11KsubB arrays contain targets for more than 11,000 mouse genes and expressed sequence tags (ESTs). Each gene or EST is represented on the array by 20 perfectly matched (PM) oligonucleotides and 20 mismatched (MM) control probes that contain a single central-base mismatch. The signal intensities of PM and MM were used to calculate a discrimination score, R, which is equal to (PM−MM)/(PM+MM). A detection algorithm utilized R to generate a detection p-value and assign a Present, Marginal or Absent call using the Wilcoxon signed rank test (Wilcoxon F., Biometrics 1:80-83 (1945); Affymetrix, Inc., New Statistical Algorithms for Monitoring Gene Expression on GeneChip Probe Arrays, Technical Notes 1, Part No. 701097 Rev. 1 (2001)). Only genes that were “Present” in at least 2 out of 3 arrays per experimental group were considered for further analysis. A signal algorithm calculated the relative level of expression of each transcript using the One-Step Tukey's Biweight Estimate (Affymetrix, Inc., New Statistical Algorithms for Monitoring Gene Expression on GeneChip Probe Arrays, Technical Notes 1, Part No. 701097 Rev. 1 (2001)). This procedure generates a robust weighted mean that is relatively insensitive to outliers, even when they are extreme. Genes with a signal intensity lower than the mean array signal intensity in 2 or more of the 3 arrays in either experimental group were eliminated from the analysis. All arrays were scaled to a target intensity of 2500. To identify differentially expressed genes, each of the 3 control samples was compared with each of the 3 STZ-treated samples, resulting in 9 pairwise comparisons. […] Difference values (PM-MM) between the control and STZ-treated arrays were used to generate a one-sided p-value for each set of probes. Default boundaries between significant and not significant p-values were used (Affymetrix, Inc., New Statistical Algorithms for Monitoring Gene Expression on GeneChip Probe Arrays, Technical Notes 1, Part No. 701097 Rev. 1 (2001)). […]

[2] = Blood glucose measurements after streptozotocin injections; type: in vivo, Swiss-Webster mice; details: three weekly intraperitoneal injections, 10 mg/100 g body weight; one week after the third injection
Experimental: as §1

SMILES: CN(N=O)C(=O)N[C@H]1C(O)O[C@H](CO)[C@@H](O)[C@@H]1O (mixture of isomers) [STZ, streptozotocin]
- FC Hepatocyte growth factor activator HGFA (Hgfac) mRNA ([1]; GenBank W12681, liver, STZ vs control mice): −2.8 fold
- FC mb19d12.rl Soares mouse cDNA clone IMAGE:329879, similar to ACTIN, AORTIC SMOOTH MUSCLE ([1]; GenBank W12899, liver, STZ vs control mice): −2.9 fold
- FC Hepcidin antimicrobial peptide (Hamp) mRNA ([1]; GenBank W12913, liver, STZ vs control mice): −2.2 fold
- FC RIKEN cDNA 1110004C05 gene ([1]; GenBank W12941, liver, STZ vs control mice): 2.7 fold
- FC Golgi reassembly stacking protein 2 (Grs2-pending) mRNA ([1]; GenBank W13835, liver, STZ vs control mice): 3.5 fold
- FC DEAD/H (Asp-Glu-Ala-Asp/His) box polypeptide 1 mRNA ([1]; GenBank W13878, liver, STZ vs control mice): 1.9 fold
- FC Angiotensinogen (Agt) mRNA ([1]; GenBank W17473, liver, STZ vs control mice): −2.4 fold
- FC Tubulin cofactor a (Tbca) mRNA ([1]; GenBank W18904, liver, STZ vs control mice): 1.8 fold
- FC RIKEN cDNA 1110061M03 gene ([1]; GenBank W21013, liver, STZ vs control mice): −2.6 fold
- FC RIKEN cDNA 2410038A03 gene ([1]; GenBank W30137, liver, STZ vs control mice): 1.9 fold
- FC Coagulation factor XII (Hageman factor) (F12) mRNA ([1]; GenBank W34349, liver, STZ vs control mice): 2.0 fold
- FC Succinate dehydrogenase complex, subunit A, flavoprotein (Fp) (Sdha) mRNA ([1]; GenBank W53390, liver, STZ vs control mice): 2.0 fold
- FC RIKEN cDNA 1810030E05 gene ([1]; GenBank W64827, liver, STZ vs control mice): 2.4 fold
- FC mf48c06.rl Soares mouse embryo cDNA clone IMAGE:408298 ([1]; GenBank W85397, liver, STZ vs control mice): 2.0 fold
- FC Cytochrome c oxidase, subunit VIIa 3 (Cox7a3) mRNA ([1]; GenBank W91222, liver, STZ vs control mice): 2.4 fold
- FC CD 81 antigen (Cd81) mRNA ([1]; GenBank W98255, liver, STZ vs control mice): −2.9 fold
- expression of Cytochrome c oxidase ([1]; liver of SID mice): increased
- expression of Glutathione S-transferase μ2 ([1]; liver of SID mice): increased
- expression of Glutathione S-transferase π2 ([1]; liver of SID mice): increased
- expression of NADH dehydrogenase 1 ([1]; liver of SID mice): increased
- expression of RAB 1 ([1]; liver of SID mice): increases
- expression of a proteasome subunit ([1]; liver of SID mice): Increased
- expression of alcohol dehydrogenase 1 ([1]; liver of SID mice): decreases
- expression of arginase 1 ([1]; liver of SID mice): increased
- expression of argininosuccinate synthetase 1 ([1]; liver of SID mice): increased
- expression of complement component 4 ([1]; liver of SID mice): decreases
- expression of corticosteroid binding globulin ([1]; liver of SID mice): Decreased
- expression of cytochrome P450, 1a2 gene ([1]; liver of SID mice): decreases
- expression of cytochrome P450, 2b13 gene ([1]; liver of SID mice): decreases
- expression of cytochrome P450, 2c29 gene ([1]; liver of SID mice): decreases
- expression of hepatic histidine ammonia lyase ([1]; liver of SID mice): Increased
- expression of hepatic mRNA for insulin-like growth factor binding protein 2 ([1]; liver of SID mice): increases
- expression of inter-alpha trypsin inhibitor, heavy chain 3 ([1]; liver of SID mice): increases
- expression of lactate dehydrogenase 1 ([1]; liver of SID mice): increases
- expression of sorbitol dehydrogenase 1 ([1]; liver of SID mice): decreases
- expression of the flavin-containing monooxygenase 5 gene ([1]; liver of SID mice): increases
- expression of the gene for apolipoprotein H ([1]; liver of SID mice): increases
- expression of thioether S-methyltransferase ([1]; liver of SID mice): decreases
- expression of two cytochrome P450, 3a subfamily members ([1]; liver of SID mice): increases
- mRNA for heat shock 70 kD protein 5 ([1]; liver of SID mice): induced
- mRNA for hypoxia inducible factor 1 ([1]; liver of SID mice): induced
- mRNA for prolyl 4-hydroxylase, beta polypeptide ([1]; liver of SID mice): induced
- number of known genes with a change in expression ([1]; liver, control vs STZ-treated mice, more than 11,000 genes and ESTs assessed, 1.8-fold or greater): 47
- diabetic state by blood glucose measurements [2]: diabetic
